One assay has as its system BxPC-3 Pancreas. As to the kind of experiment: Cell line assay, HOCOS combinations, BxPC-3. The following applies: Homo sapiens; BxPC-3, compound alone. In kind it is cell-based. The protocol: (§1) To study the possible use of HOCOS in combinatorial therapies, human glioblastoma cells of lines U118, SNB19, SF268, human mesothelioma cells NCI-H2021 and pancreatic cancer cells BxPC-3 (pancreatic adenocarcinoma) and MIAPaCa-2 ([…]) were cultured in the absence or presence of different chemotherapeutic agents and combinations of HOCOS with said compounds.

A further assay relates to NCI-H2021 Mesothelioma. The experiment in a line: Cell line assay, HOCOS combinations, NCI-H2021. The following applies: NCI-H2021, compound alone. The assay is classed as cell-based, human. The protocol:
as §1

The subject of another assay is SNB19 Glioblastoma. The experiment in a line: cells. To be noted: Homo sapiens, SNB-19. The procedure: as §1
Assay [1] concerns neuropathic pain due to spinal cord injury. To be noted: Cardenas et al., cited from earlier work.
For the next assay, the system named is U118 Glioblastoma. As to the kind of experiment: Cell line assay, HOCOS combinations, U118. The assay is classed as cell-based. The following applies: Homo sapiens; U118, compound alone. The protocol: as §1
In the next assay the test system is A549 Lung. The experiment in a line: Cell line assay, HOCOS combinations, A549. The assay is classed as cell-based. To be noted: Homo sapiens; A549, compound alone.

This is an account of results in patent publication US20260115161A1, “2-HYDROXY-OCTADECENE-9-CIS-OATE FOR USE IN THE TREATMENT OF ONCOLOGICAL PATHOLOGIES AND NEUROPATHIC PAIN” (Laminar Pharmaceuticals S.A., priority 2023, published 2026).

For orientation: IC50 means the concentration that inhibits the measured activity by half.

For the molecule `Nc1ccn([C@@H]2O[C@H](CO)[C@@H](O)C2(F)F)c(=O)n1` [Gemcitabine], in the assay with BxPC-3 Pancreas, the IC50 is 7.8 nM.

On to `N.N.[Cl][Pt][Cl]` [Cisplatin], for which the IC50 in the assay with NCI-H2021 Mesothelioma was 16.4 µM.

For `Cc1ncc(C[n+]2csc(CCO)c2C)c(N)n1` [Thiamine], the IC50 with SNB19 Glioblastoma was 15.3 mM.

`CC(C)C[C@H](CN)CC(=O)O` [pregabalin]: the “percentage of patients responding, pregabalin group” value in assay [1] (33% in the placebo group) is recorded as 48%. Moreover, in assay [1], the “mean reduction of neuropathic pain” value is listed as 1.2 points on the VAS scale and the “patients responding to treatment” value was “approximately 50%”. In assay [1] (VAS scale), the “difference between pregabalin and placebo groups” value is 0.82 points.

For `CCc1c2c(nc3ccc(OC(=O)N4CCC(N5CCCCC5)CC4)cc13)-c1cc3c(c(=O)n1C2)COC(=O)[C@]3(O)CC` [Irinotecan], the IC50 in the assay with U118 Glioblastoma stood at 15 µM.

Take `C#Cc1cccc(Nc2ncnc3cc(OCCOC)c(OCCOC)cc23)c1` [Erlotinib]: the concentration for half-maximal inhibition (IC50) with A549 Lung came to 16 µM.
